Laboratory results taken from patent publication US20240238314A1, “TREATMENT OF ESSENTIAL TREMOR” (Sage Therapeutics, Inc., priority 2021, published 2024).
Entries after “also recorded” stand apart in the source; their conditions may differ.

What was measured:
[1] = system: individuals with essential tremor; assay: Phase 2 study, Compound 1 60 mg once daily for 28 days: TETRAS ADL total score; format: in vivo, human
From the text: As used herein, “The Essential Tremor Rating Assessment Scale (TETRAS) activities of daily living (ADL) subscale total score” refers to an assessment scale for essential tremor developed by The Tremor Research Group (Elble, R. J., J. Neurol. Neuromedicine 1(4):34-38 (2016); Elble, R. J. et. al., Mov. Disord. 27(12); 1567-1569 (2012)). The TETRAS ADL subscale includes 12 metrics or characteristics, wherein each metric or characteristic is scored 0, 1, 2, 3, or 4 based on the severity of the characteristic present in the subject. Scores for each of the 12 characteristics are then added to give a total score of no greater than 48. The 12 characteristics scored in the TETRAS ADL subscale total score include:
Participants were 18 to 80 years of age, inclusive, diagnosed of ET of at least 3 years duration with scores of at least 1.5 for each of the six items that comprised the combined total upper limb TETRAS (total performance subscale part 4) with the total score for the dominant upper limb (the sum of the 3 items for either the right or left upper limb, whichever is dominant) being at least 5.5, at both Screening and predose on Day 1.
(§1) Participants were randomized to receive Compound 1 60 mg or placebo once daily in the morning on a 1:1 basis. If participants reported a TEAE considered by investigator to be related to Compound 1 and not tolerable, investigator might reduce the dose of Compound 1 from 60 mg in 15 mg decrements (i.e., 60 mg, to 45 mg, to 30 mg), as medically appropriate. If intolerable TEAEs persist at the 30 mg dose, Compound 1 was permanently stopped.
This study included a Screening Period of up to 28 days, a 29-day treatment period consisting of 28 days of dosing with the end of treatment visit intended to be on Day 29 at trough, and a 14-day follow-up period relative to final dose. Study patients were not taking other medications for essential tremor during the 28-day treatment period.
Similarly, an MMRM was be used for the analysis of the following variables: changes from baseline in TETRAS performance subscale part 4, 6, 7, and 8 combined score, and TETRAS ADL score. For each model, the comparison of interest was between Compound 1 tablets and matching placebo at the 15-day time point. Model-based point estimates (i.e., LS means), 95% confidence intervals, and p-values were reported.

[2] = system: individuals with essential tremor; assay: Phase 2 study, Compound 1 60 mg once daily for 28 days: safety and tolerability (TEAEs, dose reduction, discontinuation; Safety Set); format: in vivo, human
Procedure: • Incidence of treatment-emergent adverse events (TEAEs). • Safety and tolerability of Compound 1 as assessed by change from baseline in vital signs, electrocardiograms (ECGs), clinical laboratory parameters, and Columbia-Suicide Severity Rating Scale (C-SSRS). • Physician Withdrawal Checklist (PWC-20).
as §1
Participants were monitored for safety during the Treatment and Follow-up Periods (through Study Day 45 [±3 days]) including monitoring for AEs/serious AEs (SAEs), routine clinical laboratory assessments, physical examination, vital signs, and ECG, etc.
Safety Set: defined as all participants who received at least one dose of Compound 1. The Safety Set was used to provide descriptive summaries of the safety data.
The safety and tolerability of Compound 1 were evaluated by adverse events, concomitant medication usage, changes from baseline in physical examination, vital signs, clinical laboratory evaluations, and 12-lead ECG. Suicidality was monitored by the C-SSRS. Safety data were listed by subject and by study drug and summarized descriptively. All safety summaries were performed on the Safety Set.
The incidence of adverse events were summarized by system organ class, and preferred term for subjects in Safety Set.

[3] = Baseline TETRAS ADL < 28, Day 29
[4] = Baseline TETRAS ADL ≥ 28, Day 29
[5] = Safety Set, N = 34, listed as Cmpd 1

For `COC[C@@]1(O)CC[C@H]2[C@@H](CC[C@@H]3[C@@H]2CC[C@]2(C)[C@@H](C(=O)Cn4nnc(C)n4)CC[C@@H]32)C1` [Compound 1], the “LSMean (SE) CFB in TETRAS ADL total score” value [1, 3] was −2.84, the “LSMean Difference (CI) vs placebo in CFB in TETRAS ADL total score” value [1, 3] was −1.17 and the “Mean (SD) % CFB in TETRAS ADL total score” value (from here on “Mean (SD) % CFB”) [1, 3] was −16.52%. The “LSMean (SE) CFB in TETRAS ADL total score” value [1, 4] was −5.67, the “Mean (SD) % CFB” value [1, 4] was −18.10% and the “Model-based LSMean (SE) change from baseline in TETRAS ADL total score” value (“Model-based LSMean (SE) change” below) ([1]; Full Analysis Set, Day 8) was −5.34 (0.845). The “LSMean difference vs placebo in change from baseline in TETRAS ADL total score” value (“LSMean difference vs placebo in change” below) ([1]; Full Analysis Set, Day 15) was −2.95, the “Model-based LSMean (SE) change” value ([1]; Full Analysis Set, Day 15) was −5.43 (0.945) and the “LSMean difference vs placebo in change” value ([1]; Full Analysis Set, Day 22) was −2.56. For the same compound, the “Model-based LSMean (SE) change” value ([1]; Full Analysis Set, Day 22) was −5.24 (0.904), the “Mean (SD) % CFB” value ([1]; Full Analysis Set, Day 29) was −17.4% and the “Model-based LSMean (SE) change” value ([1]; Full Analysis Set, Day 29) was −4.24 (0.940). The “LSMean difference vs placebo in change” value ([1]; Full Analysis Set, Day 29, listed as Cmpd 1) was −1.37, the “LSMean difference vs placebo in change” value ([1]; Full Analysis Set, Day 42) was 1.13 and the “Model-based LSMean (SE) change” value ([1]; Full Analysis Set, Day 42) was −2.14 (0.905). The “Participants with early discontinuation of the study at 60 mg, number” value [2] was 5, the “Down-titration of dose, percent of patients” value ([2]; 60 mg down-titrated to 45 mg or 30 mg) was 62% and the “Early treatment discontinuation, reason Physician Decision, number” value ([2]; N = 34) was 1. The “Early treatment discontinuation, reason Physician Decision, percent” value ([2]; N = 34) was 2.9%, the “Early treatment discontinuation, reason Subject was lost to follow up, number” value ([2]; N = 34) was 0 and the “Early treatment discontinuation, reason Withdrawal by Subject, number” value ([2]; N = 34) was 3. For the same compound, the “Early treatment discontinuation, reason Withdrawal by Subject, percent” value ([2]; N = 34) was 8.8%, the “TEAE Asthenia, number of participants” value ([2]; Safety Set, N = 34) was 1 and the “TEAE Asthenia, percent of participants” value ([2]; Safety Set, N = 34) was “(2.9%)”. For the same compound, the “TEAE Balance disorder, number of participants” value ([2]; Safety Set, N = 34) was 5, the “TEAE Balance disorder, percent of participants” value ([2]; Safety Set, N = 34) was 15% and the “TEAE Coordination abnormal, number of participants” value ([2]; Safety Set, N = 34) was 1. The “TEAE Coordination abnormal, percent of participants” value ([2]; Safety Set, N = 34) was “(2.9%)”, the “TEAE Diarrhoea, number of participants” value ([2]; Safety Set, N = 34) was 2 and the “TEAE Diarrhoea, percent of participants” value ([2]; Safety Set, N = 34) was “(5.9%)”. The “TEAE Diplopia, number of participants” value ([2]; Safety Set, N = 34) was 4, the “TEAE Diplopia, percent of participants” value ([2]; Safety Set, N = 34) was 12% and the “TEAE Disturbance in attention, number of participants” value ([2]; Safety Set, N = 34) was 3. For the same compound, the “TEAE Disturbance in attention, percent of participants” value ([2]; Safety Set, N = 34) was “(8.8%)”, the “TEAE Dizziness, number of participants” value ([2]; Safety Set, N = 34) was 13 and the “TEAE Dizziness, percent of participants” value ([2]; Safety Set, N = 34) was 38%. The “TEAE Dysarthria, number of participants” value ([2]; Safety Set, N = 34) was 4, the “TEAE Dysarthria, percent of participants” value ([2]; Safety Set, N = 34) was 12% and the “TEAE Fatigue, number of participants” value ([2]; Safety Set, N = 34) was 5. For the same compound, the “TEAE Fatigue, percent of participants” value ([2]; Safety Set, N = 34) was “(14.7%)”, the “TEAE Gait disturbance, number of participants” value ([2]; Safety Set, N = 34) was 4 and the “TEAE Gait disturbance, percent of participants” value ([2]; Safety Set, N = 34) was 12%. The “TEAE Headache, number of participants” value ([2]; Safety Set, N = 34) was 2, the “TEAE Headache, percent of participants” value ([2]; Safety Set, N = 34) was “(5.9%)” and the “TEAE Insomnia, number of participants” value ([2]; Safety Set, N = 34) was 1. For the same compound, the “TEAE Insomnia, percent of participants” value ([2]; Safety Set, N = 34) was “(2.9%)”, the “TEAE Irritability, number of participants” value ([2]; Safety Set, N = 34) was 0 and the “TEAE Lethargy, number of participants” value ([2]; Safety Set, N = 34) was 2. For the same compound, the “TEAE Lethargy, percent of participants” value ([2]; Safety Set, N = 34) was “(5.9%)”, the “TEAE Mental status changes, number of participants” value ([2]; Safety Set, N = 34) was 2 and the “TEAE Mental status changes, percent of participants” value ([2]; Safety Set, N = 34) was “(5.9%)”. For the same compound, the “TEAE Myalgia, number of participants” value ([2]; Safety Set, N = 34) was 0, the “TEAE Myoclonus, number of participants” value ([2]; Safety Set, N = 34) was 3 and the “TEAE Myoclonus, percent of participants” value ([2]; Safety Set, N = 34) was “(8.8%)”. The “TEAE Paraesthesia, number of participants” value ([2]; Safety Set, N = 34) was 2, the “TEAE Paraesthesia, percent of participants” value ([2]; Safety Set, N = 34) was “(5.9%)” and the “TEAE Somnolence, number of participants” value ([2]; Safety Set, N = 34) was 23. The “TEAE Speech disorder, number of participants” value ([2]; Safety Set, N = 34) was 2, the “TEAE Speech disorder, percent of participants” value ([2]; Safety Set, N = 34) was “(5.9%)” and the “TEAE Urinary tract infection, number of participants” value ([2]; Safety Set, N = 34) was 1. For the same compound, the “TEAE Urinary tract infection, percent of participants” value ([2]; Safety Set, N = 34) was “(2.9%)”, the “TEAE Balance disorder, percent of participants” value [2, 5] was “(14.7%)” and the “TEAE Diplopia, percent of participants” value [2, 5] was “(11.8%)”. The “TEAE Dizziness, percent of participants” value [2, 5] was “(38.2%)”, the “TEAE Dysarthria, percent of participants” value [2, 5] was “(11.8%)” and the “TEAE Gait disturbance, percent of participants” value [2, 5] was “(11.8%)”. The “TEAE Somnolence, percent of participants” value [2, 5] was “(67.6%)”, the “Discontinuations noted, of patients receiving Compound 1” value ([2]; in vivo) was 3800 and the “Participants with early discontinuation of the study at 60 mg, percent” value ([2]; in vivo) was 14.7%. The “Severe adverse events (SAEs) reported by one participant, in words” value ([2]; individual participants of the Compound 1 group) was “mental status changes; also recorded: dehydration; also recorded: headache; also recorded: transient ischaemic attack”, the “Early treatment discontinuation due to adverse event (TEAEs leading to treatment discontinuation), number” value ([2]; of 34) was 9 and the “Early treatment discontinuation due to adverse event (TEAEs leading to treatment discontinuation), percent” value ([2]; of 34) was 26.5%. The “Participants reporting TEAEs leading to study discontinuation, number” value ([2]; of 34) was 4, the “Participants reporting TEAEs leading to study discontinuation, percent” value ([2]; of 34) was 11.8% and the “Participants reporting TEAEs resulting in treatment dose reduction, number” value ([2]; of 34) was 21. The “Participants reporting TEAEs resulting in treatment dose reduction, percent” value ([2]; of 34) was 61.8%, the “Participants reporting severe TEAEs, number” value ([2]; of 34) was 11 and the “Participants reporting severe TEAEs, percent” value ([2]; of 34) was 32.4%. For the same compound, the “Participants reporting treatment-emergent adverse events (TEAEs), number” value ([2]; of 34) was 33, the “Participants reporting treatment-emergent adverse events (TEAEs), percent” value ([2]; of 34) was 97.1% and the “Participants who completed the study at 60 mg dose, number” value ([2]; of 34) was 8. The “Participants who completed the study at 60 mg dose, percent” value ([2]; of 34) was 23.5%, the “Participants who had dose reduced to 30 mg from 60 mg directly, number” value ([2]; of 34) was 2 and the “Participants who had dose reduced to 30 mg from 60 mg directly, percent” value ([2]; of 34) was 5.9%. For the same compound, the “Participants who had dose reduced to 45 mg, number” value ([2]; of 34) was 19 and the “Participants who had dose reduced to 45 mg, percent” value ([2]; of 34) was 55.9%.
